# Results as given in paper PMC6370995, “Phase I study of PF‐04895162, a Kv7 channel opener, reveals unexpected hepatotoxicity in healthy subjects, but not rats or monkeys: clinical evidence of disrupted bile acid homeostasis” (Pharmacology Research & Perspectives, 2019).
# Read-outs that look alike come from different tables or passages of the source.
# Columns and labels:
# MRP3 = target: T1, MRP3 (Homo sapiens, UniProt O15438); experiment: MRP3 transporter inhibition in vesicles from HEK293 cells; type: biochemical
# T1 construct: host or cells: membrane vesicles from HEK293 cells
# Excerpt: […]
# Sprague-Dawley rats [1] = experiment: 28-day Oral Gavage Toxicity and Toxicokinetic Study in Rats; type: in vivo
# Experimental: (§1) In the longer-term studies Sprague-Dawley rats were administered PF-04895162 once daily for 28 days or 6 months at doses up to 100 mg/kg/day. […] The drug was well absorbed into the systemic circulation of male and female rats following oral administration for 6 months.
# [2] = 6-Month Oral Toxicity Study in Sprague Dawley Rats; type: in vivo, rat; conditions: Sprague-Dawley, rat, plasma, oral
# Experimental: as §1
# Sprague-Dawley rats [3] = experiment: 6-Month Oral Toxicity Study in Sprague Dawley Rats; type: in vivo, rat
# Experimental: as §1
# [4] = HepG2 72 hour cytotoxicity assay based on ATP depletion; type: cell-based; conditions: human, HepG2 cells; HepG2, after 72 hours
# Excerpt: […]
# MRP4 = target: T2, MRP4 (Homo sapiens, UniProt O15439); experiment: MRP4 transporter inhibition in vesicles from HEK293 cells; type: biochemical
# T2 construct: host or cells: membrane vesicles from HEK293 cells
# T2 sequence (O15439 1-1325): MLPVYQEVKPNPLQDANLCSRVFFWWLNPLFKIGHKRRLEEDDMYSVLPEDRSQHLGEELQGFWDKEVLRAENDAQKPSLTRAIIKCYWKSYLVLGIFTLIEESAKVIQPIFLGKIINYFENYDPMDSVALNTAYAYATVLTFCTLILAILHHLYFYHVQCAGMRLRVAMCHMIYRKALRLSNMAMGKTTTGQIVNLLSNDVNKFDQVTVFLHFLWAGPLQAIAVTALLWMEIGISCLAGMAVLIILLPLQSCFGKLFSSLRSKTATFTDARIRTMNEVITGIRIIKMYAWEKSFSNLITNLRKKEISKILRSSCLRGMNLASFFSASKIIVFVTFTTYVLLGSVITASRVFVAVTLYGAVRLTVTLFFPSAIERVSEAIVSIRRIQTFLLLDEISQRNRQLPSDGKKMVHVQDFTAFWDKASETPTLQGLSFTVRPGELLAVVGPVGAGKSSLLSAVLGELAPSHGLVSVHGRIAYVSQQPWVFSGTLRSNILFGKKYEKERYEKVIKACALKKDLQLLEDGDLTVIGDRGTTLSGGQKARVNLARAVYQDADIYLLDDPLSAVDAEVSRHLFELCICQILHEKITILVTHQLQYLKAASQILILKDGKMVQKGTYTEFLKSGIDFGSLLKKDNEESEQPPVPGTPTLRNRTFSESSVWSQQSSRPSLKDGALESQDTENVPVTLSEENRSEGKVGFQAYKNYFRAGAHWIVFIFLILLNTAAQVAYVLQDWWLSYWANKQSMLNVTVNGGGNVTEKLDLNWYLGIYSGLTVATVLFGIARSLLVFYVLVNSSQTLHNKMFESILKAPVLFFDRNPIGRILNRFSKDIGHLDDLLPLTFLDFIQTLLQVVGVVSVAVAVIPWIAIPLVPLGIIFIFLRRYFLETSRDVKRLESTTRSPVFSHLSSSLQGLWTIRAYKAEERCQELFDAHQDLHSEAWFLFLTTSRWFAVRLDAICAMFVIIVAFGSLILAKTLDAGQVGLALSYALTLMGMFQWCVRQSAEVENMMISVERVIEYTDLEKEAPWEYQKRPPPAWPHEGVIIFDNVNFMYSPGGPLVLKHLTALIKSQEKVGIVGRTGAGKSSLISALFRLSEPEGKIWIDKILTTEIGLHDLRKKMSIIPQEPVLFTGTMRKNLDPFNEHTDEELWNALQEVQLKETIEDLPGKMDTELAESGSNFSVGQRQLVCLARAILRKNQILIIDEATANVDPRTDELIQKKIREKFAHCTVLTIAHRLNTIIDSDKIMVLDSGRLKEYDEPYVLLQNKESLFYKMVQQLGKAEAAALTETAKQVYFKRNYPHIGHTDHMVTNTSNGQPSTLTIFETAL
# Excerpt: […]
# T1 sequence (O15438 whole entry): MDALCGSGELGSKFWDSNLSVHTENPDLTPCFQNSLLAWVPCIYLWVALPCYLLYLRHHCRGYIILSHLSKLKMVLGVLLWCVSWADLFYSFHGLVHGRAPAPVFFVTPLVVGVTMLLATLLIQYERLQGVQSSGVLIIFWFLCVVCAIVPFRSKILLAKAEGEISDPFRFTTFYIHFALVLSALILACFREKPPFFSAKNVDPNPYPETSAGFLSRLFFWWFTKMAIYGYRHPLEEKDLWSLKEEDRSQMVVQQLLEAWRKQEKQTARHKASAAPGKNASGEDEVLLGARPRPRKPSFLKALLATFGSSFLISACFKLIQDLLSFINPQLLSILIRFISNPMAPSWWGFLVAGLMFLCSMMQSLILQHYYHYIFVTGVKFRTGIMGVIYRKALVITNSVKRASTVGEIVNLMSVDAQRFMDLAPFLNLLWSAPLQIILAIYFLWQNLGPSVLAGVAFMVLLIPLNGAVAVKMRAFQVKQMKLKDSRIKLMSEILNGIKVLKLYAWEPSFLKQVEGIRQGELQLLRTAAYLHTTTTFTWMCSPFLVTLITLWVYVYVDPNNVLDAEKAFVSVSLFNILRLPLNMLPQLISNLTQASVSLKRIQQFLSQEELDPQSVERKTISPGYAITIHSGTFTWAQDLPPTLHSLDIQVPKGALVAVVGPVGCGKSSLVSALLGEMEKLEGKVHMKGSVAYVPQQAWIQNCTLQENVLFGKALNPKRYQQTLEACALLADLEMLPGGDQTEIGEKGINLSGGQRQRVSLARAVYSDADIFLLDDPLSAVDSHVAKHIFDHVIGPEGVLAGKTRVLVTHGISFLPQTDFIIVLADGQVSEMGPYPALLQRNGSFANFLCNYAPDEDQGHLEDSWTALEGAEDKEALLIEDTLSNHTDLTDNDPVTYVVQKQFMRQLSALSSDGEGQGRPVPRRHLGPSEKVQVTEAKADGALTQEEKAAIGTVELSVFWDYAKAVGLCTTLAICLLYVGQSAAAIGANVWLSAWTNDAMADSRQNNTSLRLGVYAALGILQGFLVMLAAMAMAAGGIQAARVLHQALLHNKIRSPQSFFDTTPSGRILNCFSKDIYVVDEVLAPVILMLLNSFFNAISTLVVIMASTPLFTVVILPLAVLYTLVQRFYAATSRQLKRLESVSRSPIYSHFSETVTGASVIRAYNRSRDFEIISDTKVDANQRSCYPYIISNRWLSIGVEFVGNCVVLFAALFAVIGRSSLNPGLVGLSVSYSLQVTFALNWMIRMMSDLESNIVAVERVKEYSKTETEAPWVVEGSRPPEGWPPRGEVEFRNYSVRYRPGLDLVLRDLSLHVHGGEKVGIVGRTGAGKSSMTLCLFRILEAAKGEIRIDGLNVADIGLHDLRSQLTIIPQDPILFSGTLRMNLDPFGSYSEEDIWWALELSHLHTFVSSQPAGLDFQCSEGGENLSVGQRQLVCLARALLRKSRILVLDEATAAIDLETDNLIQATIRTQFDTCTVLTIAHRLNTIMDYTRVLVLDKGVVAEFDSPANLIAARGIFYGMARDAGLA
smiles,measurement,setting,value
"O=C(Cc1ccc(F)cc1)Nn1c(C2CC2)nc2cc(F)ccc2c1=O [PF‐04895162, N‐(2‐cyclopropyl‐7‐fluoro‐4‐oxoquinazolin‐3(4H)‐yl)‐2‐(4‐fluorophenyl)ethanamide]",effect on MRP3,MRP3,no inhibitory effect
same,"few feces, incidence","Sprague-Dawley rats [1]; 100 mg/kg, females",6/15
same,"head tremors, incidence","Sprague-Dawley rats [1]; 100 mg/kg, females",2/15
same,"rough haircoat, incidence","Sprague-Dawley rats [1]; 100 mg/kg, females",4/15
same,"clear oral discharge, incidence","Sprague-Dawley rats [1]; 100 mg/kg, males",2/15
same,microscopic findings in the liver,Sprague-Dawley rats [1]; 100 mg/kg/day for 28 days,No treatment-related microscopic findings
same,body temperature,"Sprague-Dawley rats [1]; 3, 30, 100 mg/kg, 28 days",no apparent treatment-related effect
same,clinical pathology data,"Sprague-Dawley rats [1]; 3, 30, 100 mg/kg, 28 days",no apparent treatment-related effects
same,gross pathology and mean organ weights,"Sprague-Dawley rats [1]; 3, 30, 100 mg/kg, 28 days",no obvious treatment-related gross pathology findings or mean organ weight changes
same,mortality,"Sprague-Dawley rats [1]; 3, 30, 100 mg/kg, 28 days",no mortality
same,liver weights,"Sprague-Dawley rats [1]; 28 days, up to 100 mg/kg/day",Increased liver weights
same,Day 28 mean body weight,"Sprague-Dawley rats [1]; females, 3 mg/kg",101 % of control
same,Weeks 1-4 food consumption,"Sprague-Dawley rats [1]; females, 3 mg/kg",101 % of control
same,Mean liver weight,"Sprague-Dawley rats [1]; females, 3 mg/kg (cell cut, unit not shown)",111
same,Day 28 mean body weight,"Sprague-Dawley rats [1]; females, 30 mg/kg",97 % of control
same,Weeks 1-4 food consumption,"Sprague-Dawley rats [1]; females, 30 mg/kg",97 % of control
same,Mean liver weight,"Sprague-Dawley rats [1]; females, 30 mg/kg (cell cut, unit not shown)",106
same,Day 28 mean body weight,"Sprague-Dawley rats [1]; females, 100 mg/kg",95 % of control
same,Weeks 1-4 food consumption,"Sprague-Dawley rats [1]; females, 100 mg/kg",88 % of control
same,Day 28 mean body weight,"Sprague-Dawley rats [1]; males, 3 mg/kg",100 % of the mean control weight
same,Weeks 1-4 food consumption,"Sprague-Dawley rats [1]; males, 3 mg/kg",99 % of the mean control food consumption
same,Day 28 mean body weight,"Sprague-Dawley rats [1]; males, 30 mg/kg",92 % of the mean control weight
same,Weeks 1-4 food consumption,"Sprague-Dawley rats [1]; males, 30 mg/kg",95 % of the mean control food consumption
same,Day 28 mean body weight,"Sprague-Dawley rats [1]; males, 100 mg/kg",90 % of the mean control weight
same,Weeks 1-4 food consumption,"Sprague-Dawley rats [1]; males, 100 mg/kg",87 % of the mean control food consumption
same,transaminases,"Sprague-Dawley rats [1]; once daily for 28 days, up to 100 mg/kg/day",No transaminase elevations
same,Cmax,"[2]; both sexes, 100 mg/kg/day, studies >1 month in duration, read-out: total Cmax concentrations in the rat (male-female)",6.9 to 15.1 µM
same,Cmax,"[2]; female, Day 1, 100 mg/kg/day, read-out: Total Cmax, female rats",5350 ng/mL
same,Cmax,"[2]; male, Day 1, 100 mg/kg/day, read-out: Total Cmax, male rats",2460 ng/mL
same,liver weights,"Sprague-Dawley rats [3]; 6 months, up to 100 mg/kg/day",Increased liver weights
same,deaths,"Sprague-Dawley rats [3]; 10, 30 and 100 mg/kg/day, 6 months",no test-article related deaths
same,accumulation of parent drug / induction of drug metabolizing enzymes,Sprague-Dawley rats [3]; by the end of the 6 month study,no evidence of accumulation of parent drug or any apparent induction of drug metabolizing enzymes
same,Microscopic changes in liver,Sprague-Dawley rats [3]; females at 30 mg/kg/day and males and females at 100 mg/kg/day for 6 months,centrilobular hypertrophy
same,body temperature,"Sprague-Dawley rats [3]; females only, Days 1 and 91 at 30 and 100 mg/kg/day",mild decrease in body temperature
same,Mean food consumption,"Sprague-Dawley rats [3]; males and females at 100 mg/kg/day, entire 6-month period",less compared to controls
same,clinical chemistry changes,Sprague-Dawley rats [3]; males and/or females at 30 and/or 100 mg/kg/day,"higher phosphorus, potassium, bilirubin, and cholesterol values and lower chloride and glucose levels"
same,Mean body weights,"Sprague-Dawley rats [3]; males at 30 and 100 mg/kg/day, females at 100 mg/kg/day",lower compared to controls
same,transaminases,"Sprague-Dawley rats [3]; once daily for 6 months, up to 100 mg/kg/day",No transaminase elevations
same,IC50 at 72 h,[4],~130 µM
same,IC50,MRP4,121 µM
